# Where “and” joins values, the source holds several entries; their conditions need not be identical. Equal values may be shown once. Read-outs that look alike come from different tables or passages of the source.
# Key:
# [1] = system: human small cell lung cancer cell line H69/P; test: MTT assay, 7 day exposure, sensitivity of parent cell line H69/P to chemotherapeutic agents; format: cell-based; conditions: H69/P; CsA 5 μg/ml, clofazimine 1 μg/ml or B669 0.5 μg/ml
# Method: (§1) The riminophenazines of the above formula (I), contain an imino group. […] The potency of compounds of the above general formula, as inhibitors of multi-drug resistance, was assessed by sensitization of a P-glycoprotein positive cell line to drugs associated with this form of resistance. A human small cell lung cancer cell line H 69/P as well as a multi-drug resistance (MDR) sub-line H69/LX4 were used. These cell lines were obtained from the Medical Research Council Clinical Oncology and Radiotherapeutics Unit, Hills Road, Cambridge, England. The H69/LX4 line was selected in vitro by progressive exposure to increasing concentrations of doxorubicin in order to increase P-glycoprotein expression.
# (§2) The cell lines used were human small cell lung cancer cell line HP69/P and a multi-drug resistant (MDR) sub-line H69/LX4, both of which were supplied by the MRC Clinical Oncology and Radiotherapeutics Unit, Hills Road, Cambridge, England. The maintenance of the cell lines and drug response assays was done as described by Twentyman et al in British Journal of Cancer Volume 65 pages 335-340. The H69/LX4 line was originally described by Twentyman et al in British Journal of Cancer Volume 53, pages 529-637 (1986).
# (§3) The data in parenthesis represents fold sensitivity compared with the chemotherapeutic agent without the MDR inhibitor.
# [2] = system: multi-drug resistant (MDR) lung carcinoma cell line H69/LX4; test: in vitro; conditions: for IC50: Homo sapiens; for INCREASED SENSITIVITY H69/Lx4: Table VIII, values equal IC50 NONE / IC50 with VB 25 ng/ml of Table VII, 10080 min
# Method: as §1, §2, §3
# (§4) The results obtained, are illustrated graphically in FIGS. 4 to 7 of the accompanying drawings.
# (§5) The general procedure set forth above was followed, i.e. 7 days incubation in the4 presence of doxorubicin at 12,5 ng/ml or vinblastine at 25 or 3 ng/ml.
# (§6) The effects were examined over a seven (7) day exposure to different concentrations of B4119 and B4125 on the sensitivity of a doxorubicin resistant leukaemia cell line (K562/MMB) and a lung carcinoma cell line (H69/LX4) to doxorubicin (dox) and vinblastine (VB) using the MTT assay.
# [3] = system: MDR leukaemia cell line K562/MMB; test: cells; conditions: for INCREASED SENSITIVITY K 562/MMB: Table VIII, values equal IC50 NONE / IC50 with VB 3 ng/ml of Table VII, 10080 min; for MDR activity / sensitivity against cell line K562/MMP: compared with known reference compound B4100
# Method: A third cell line (562/MMB) used was a MDR leukemia cell line selected in vitro by progressive exposure to increasing concentrations of vinblastine in order to increase P-glycoprotein expression. This cell line was developed in the Department of Immunology, University of Pretoria from K562 (ATCC CCL 243) supplied by Highveld Biological (Pty) Ltd, Sandton.
# as §5, §6
# [4] = system: H69/LX4 cells; test: [14C]-vinblastine accumulation in MDR cell line; format: cell-based, human; conditions: 1 hour pretreatment, 30 minutes [14C]-vinblastine
# Method: The effect of riminophenazines on the accumulation of [^14 C]-vinblastine was investigated. For these experiments, both of the above cell lines (H69/LX4 and H69/P) were prepared as described by Coley et al (Biochem. Pharmacal 38, 4467-4475 (1989)). After a 1 hour pretreatment with the MDR reversal agents, cells (1×10^6 /ml) were exposed to […] [^14 C]-vinblastine (1 μCi specific activity) for 30 minutes.
# [5] = in vitro; conditions: human, h69/lx4 cells
# Method: as §1, §2, §3, §4, §5, §6
# [6] = bio-availability (no method given)
# [7] = H69/LX4, CsA 5 μg/ml, clofazimine 1 μg/ml or B669 0.5 μg/ml
# [8] = 168 h, read-out: IC 50 H69/Lx4 NONE
# [9] = read-out: IC 50 H69/Lx4 DOX 12 ng/ml
# [10] = read-out: IC 50 H69/Lx4 VB 25 ng/ml
structure (smiles),measurement,setting,value
c1ccc(Nc2cc3nc4ccccc4n(-c4ccccc4)c-3cc2=NC2CCCCC2)cc1 [Compound B669],fold sensitivity to Cyclophosphamide compared with agent without MDR inhibitor,[1],1.0 fold
same,fold sensitivity to Daunorubicin compared with agent without MDR inhibitor,[1],1.2 fold
same,fold sensitivity to Doxorubicin compared with agent without MDR inhibitor,[1],1.0 fold
same,fold sensitivity to Etoposide compared with agent without MDR inhibitor,[1],1.2 fold
same,fold sensitivity to Methotrexate compared with agent without MDR inhibitor,[1],1.0 fold
same,fold sensitivity to Mitomycin C compared with agent without MDR inhibitor,[1],0.7 fold
same,fold sensitivity to Vinblastine compared with agent without MDR inhibitor,[1],1.1 fold
same,fold sensitivity to Cyclophosphamide compared with agent without MDR inhibitor,[2]; [7],1.1 fold
same,fold sensitivity to Daunorubicin compared with agent without MDR inhibitor,[2]; [7],2.4 fold
same,fold sensitivity to Doxorubicin compared with agent without MDR inhibitor,[2]; [7],6.9 fold
same,fold sensitivity to Etoposide compared with agent without MDR inhibitor,[2]; [7],14.4 fold
same,fold sensitivity to Methotrexate compared with agent without MDR inhibitor,[2]; [7],0.9 fold
same,fold sensitivity to Mitomycin C compared with agent without MDR inhibitor,[2]; [7],2.5 fold
same,fold sensitivity to Vinblastine compared with agent without MDR inhibitor,[2]; [7],13.7 fold and ~13 fold
same,IC50,[2]; [8],1 µg/mL
same,IC50,[2]; [9],0.996 µg/mL
same,IC50,[2]; [10],0.254 µg/mL
same,INCREASED SENSITIVITY H69/Lx4,[2],3.94
same,IC50,"[3]; Homo sapiens, K562, read-out: IC 50 K562/MMB VB 3 ng/ml, Table VII, with vinblastine 3 ng/ml",0.023 µg/mL
same,INCREASED SENSITIVITY K 562/MMB,[3],6.04
same,MDR activity / sensitivity against cell line K562/MMP,[3],good activity
same,vinblastine accumulation in the MDR cell line,[4],significant enhancement
"CC1(C)CC(N=c2cc3n(-c4cc(Cl)c(Cl)c(Cl)c4)c4ccccc4nc-3cc2Nc2cc(Cl)c(Cl)c(Cl)c2)CC(C)(C)N1 [Compound B4169, N,5-bis(3,4,5-trichiorophenyl)-3,5-dihydro-3-[(2',2',6',6'-tetramethyl-4-piperidyl)-imino]-2-phenazinamine]",MNTC at 168 h,[5],> 12.5 µg/mL
same,MDR reversal properties,"[2]; H69/LX4, with doxorubicin 12,5 ng/ml or vinblastine 25 ng/ml, FIGS. 4 to 7",Very good MDR reversal properties
same,IC50,[2]; [8],1.57 µg/mL
same,IC50,[2]; [9],1.08 µg/mL
same,IC50,[2]; [10],0.213 µg/mL
same,INCREASED SENSITIVITY H69/Lx4,[2],7.36
same,INCREASED SENSITIVITY K 562/MMB,[3],24.66
same,MDR activity / sensitivity against cell line K562/MMP,[3],increased substantially and unexpectedly
same,bio-availability,[6],good bio-availability

# Reference: patent US5763443A, “MDR resistance treatment and novel pharmaceutically active riminophenazines” (priority 1994, dated 1998)
